Results: patent US20110294897A1, “Treating Xerophthalmia With Compounds Increasing Meibomian Gland Secretion” (Bridge Pharma, Inc., priority 2009, published 2011)

How the values were obtained:
[1] = tested on: Meibomian gland secretion; assay: Meibomian gland secretion in vivo (Meibometer), other agonists
Procedure: Meibomian gland secretion was measured with a Meibometer (Courage-Khazaka Electronic GmbH, 50829 Cologne) and was increased in vivo as described in Examples 6 and 7, hereinafter.

intraocular pressure [2] = assay: night-time intraocular pressure in Dutch-Belted rabbits; format: in vivo, rabbit; settings: for increase of IOP: night-time IOP, ocular instillation
Procedure: Intraocular pressure (IOP) in rabbits is considerably higher during the night than during the day. The present experiments were conducted in Dutch-Belted rabbits in which IOP was higher during daytime as a consequence of switching the night/day cycle by exposing the animals to 12 hours of light during the night and 12 hours of darkness during daytime. […]

human β3 receptors = target: T1, human β3 receptors (Homo sapiens, UniProt P13945); assay: human β3 adrenergic receptor binding, [125I]CYP
T1 construct: expressed in transfected cells; host or cells: SK-N-MC cells
From the text: The specific ligand binding to the receptors is defined as the difference between the total binding and the nonspecific binding determined in the presence of an excess of unlabelled ligand.

solubility in water = format: physicochemical
[3] = tested on: Meibomian gland secretion; assay: Meibomian gland secretion (Meibometer) after intravenous infusion in conscious beagle dogs; format: in vivo, dog; settings: for Meibomian gland secretion: pre-infusion 248±9 MU
Procedure: . A Meibometer (MB550, Courage-Khazaka GmbH, Koln, Germany) was used to measure the delivery rate of lipids from the Meibomian glands. The measurements were performed in conscious beagle dogs. To reduce variability all studies were performed by a single individual, who had obtained extensive training with the instrumentation and was used to the handling of conscious laboratory dogs. The methodology has been described by Benz, P., et al. 2008, which publication is hereby included by reference, although new and improved computer software was used in the present studies.

intraocular pressure [4] = assay: intraocular pressure in rabbits with glucose-elevated IOP; format: in vivo, rabbit; settings: 10 μL instilled, 12-15 minutes after dosing
Procedure: Intraocular pressure (IOP) was increased in conscious rabbits by intravenous injections of glucose. The test compound was administered by instillation into the conjunctival sac immediately after the glucose injection and all measurements were made approximately 12-15 minutes after dosing. […] Thus, 10 μL of solutions containing 3.5 or 7.0 or 14.0 mg/ml in Tears Naturale® were instilled into the conjunctival sac. Tears Naturale® was used as control solution. TOP was measured using a manometrically calibrated BIO-RAD Digilab pneumatonometer. Tetracaine (10 μl, 0.5%) was applied to the cornea before the IOP measurements. N=7 Dutch Belted rabbits/group (2-4 kg; M and F).

lacrimal gland secretion = assay: lacrimal secretion (Schirmer) after intravenous administration in conscious rabbits; format: in vivo, rabbit
Procedure: In short, Schirmer strips are strips of filter papers, which are in part inserted into the conjunctival sac and in part hanging out from the conjunctival sac. The Schirmer strips absorb the watery tear fluid as can be observed as wetting of the strips. The length of the wetted area is measured and is an indicator of the amount of available tear fluid in the conjunctival sac. […] The average pre-dose value (from three Schirmer readings in each animal) was compared with the average of four readings during the infusions of R-salbutamol.

[5] = tested on: Meibomian gland secretion; assay: Meibomian lipid secretion (Meibometer) after ocular instillation in conscious beagle dogs; format: in vivo, dog; settings: Day 3, 4.0 percent in saline, single eye drops three times daily; vehicle 174 MU
Procedure: A Meibometer was used to measure the delivery rate of lipids from the Meibomian glands. The measurements were performed in conscious beagle dogs and the test methodology is described above (Example 6). In these experiments, Meibomian secretion was measured in saline vehicle-treated dogs and in groups of dogs that were treated with a test article, daily at about 9 AM, 11 AM and 1 PM with single eye drops. […] Both eyes were treated and a total of six dogs were used for each treatment group.

intraocular pressure [6] = assay: normal intraocular pressure in Dutch-Belted rabbits; format: in vivo, rabbit; settings: 4.1% in saline, twice daily for 5 days
Procedure: Intraocular pressure was measured twice daily using the methodology stated above.

[7] = tested on: eyes of New Zealand White rabbits; assay: ocular irritation, Draize scoring in New Zealand White rabbits
Procedure: As a vehicle control 0.1 ml of 0.9% sodium chloride for injection (B. Braun; Lot No. J9A692) was instilled in the conjunctival sac of the left eye of all the rabbits. […] Draize scoring was assessed 30 minutes, 4 hours and 24 hours after the instillations of the placebo control (saline) and the test article solutions.
The grades of ocular reaction (conjunctivae, cornea, and iris) were determined at each examination.

patients = settings: according to the manufacturer; cited from earlier work

T1 sequence (P13945 whole entry): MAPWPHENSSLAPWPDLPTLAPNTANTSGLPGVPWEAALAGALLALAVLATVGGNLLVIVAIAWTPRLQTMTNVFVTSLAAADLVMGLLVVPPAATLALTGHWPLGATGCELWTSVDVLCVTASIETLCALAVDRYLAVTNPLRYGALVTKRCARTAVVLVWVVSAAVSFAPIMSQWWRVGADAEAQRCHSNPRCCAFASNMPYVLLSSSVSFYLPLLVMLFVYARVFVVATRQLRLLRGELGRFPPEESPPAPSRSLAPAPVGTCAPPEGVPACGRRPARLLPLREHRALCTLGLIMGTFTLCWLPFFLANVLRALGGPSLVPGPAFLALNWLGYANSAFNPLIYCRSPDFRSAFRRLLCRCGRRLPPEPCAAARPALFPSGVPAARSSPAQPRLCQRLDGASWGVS

SMILES: CC(CCc1ccc(O)cc1)NCC(O)c1ccc(O)cc1 (racemic) [RR/SR ractopamine, ractopamine]
- Meibomian gland secretion in vivo [1]: ability to increase Meibomian gland secretion in vivo

SMILES: CC(C)(C)NCC(O)c1ccc(O)c(CO)c1 (racemic) [salbutamol, a′[(tert-butylamino)methyl]-4-hydroxy-m-xylene-a,a′-diol]
- Δ mmHg, nighttime intraocular pressure (intraocular pressure [2]; RS-Hi 2.0%, 1 PM): −7 mmHg
- Δ mmHg, nighttime intraocular pressure (intraocular pressure [2]; RS-Hi 2.0%, 3 PM): −4 mmHg
- Δ mmHg, nighttime intraocular pressure (intraocular pressure [2]; RS-Hi 2.0%, 5 PM): −0 mmHg
- Δ mmHg, nighttime intraocular pressure (intraocular pressure [2]; RS-Hi 2.0%, 9:00 (instillation)): 0 mmHg
- Δ mmHg, nighttime intraocular pressure (intraocular pressure [2]; RS-Hi 2.0%, 9:30): −9 mmHg
- Δ mmHg, nighttime intraocular pressure (intraocular pressure [2]; RS-Hi 2.0%, 10 AM): −9 mmHg
- Δ mmHg, nighttime intraocular pressure (intraocular pressure [2]; RS-Hi 2.0%, 11 AM): −9 mmHg
- Δ mmHg, nighttime intraocular pressure (intraocular pressure [2]; RS-Lo 0.67%, 1 PM): −5 mmHg
- Δ mmHg, nighttime intraocular pressure (intraocular pressure [2]; RS-Lo 0.67%, 3 PM): −2 mmHg
- Δ mmHg, nighttime intraocular pressure (intraocular pressure [2]; RS-Lo 0.67%, 5 PM): −0.5 mmHg
- Δ mmHg, nighttime intraocular pressure (intraocular pressure [2]; RS-Lo 0.67%, 9:00 (instillation)): 0 mmHg
- Δ mmHg, nighttime intraocular pressure (intraocular pressure [2]; RS-Lo 0.67%, 9:30): −6 mmHg
- Δ mmHg, nighttime intraocular pressure (intraocular pressure [2]; RS-Lo 0.67%, 10 AM): −6 mmHg
- Δ mmHg, nighttime intraocular pressure (intraocular pressure [2]; RS-Lo 0.67%, 11 AM): −6 mmHg
- increase of IOP (intraocular pressure [2]): Neither racemic nor isomeric salbutamol increased IOP
- affinity for beta-3 receptors (human β3 receptors): practically no affinity
- solubility in water (solubility in water): readily soluble in water

SMILES: CC(C)(C)NC[C@H](O)c1ccc(O)c(CO)c1 [R-salbutamol, R(−)-isomer of a′[(tert-butylamino)methyl]-4-hydroxy-m-xylene-a,a′-diol]
- Meibomian gland secretion ([3]; during twenty-minute iv infusion 30 μg/kg/min): 235±23 MU
- difference between pre-infusion and post-infusion secretion ([3]; iv 30 μg/kg/min for 20 min): approximately 27%
- Meibomian gland secretion ([3]; ten minutes post-infusion): 316±26 MU
- intraocular pressure lowered (vs control animals), mean±SEM (intraocular pressure [4]; 3.5 mg/ml): 5.5±1.3 mmHg
- intraocular pressure lowered (vs control animals), mean±SEM (intraocular pressure [4]; 7.0 mg/ml): 6.7±1.5 mmHg
- intraocular pressure lowered (vs control animals), mean±SEM (intraocular pressure [4]; 14.0 mg/ml): 5.8±1.3 mmHg
- Δ mmHg, nighttime intraocular pressure (intraocular pressure [2]; R-Hi 1.0%): −11 mmHg
- Δ mmHg, nighttime intraocular pressure (intraocular pressure [2]; R-Hi 1.0%, 1 PM): −10 mmHg
- Δ mmHg, nighttime intraocular pressure (intraocular pressure [2]; R-Hi 1.0%, 3 PM): −3 mmHg
- Δ mmHg, nighttime intraocular pressure (intraocular pressure [2]; R-Hi 1.0%, 5 PM): −2 mmHg
- Δ mmHg, nighttime intraocular pressure (intraocular pressure [2]; R-Hi 1.0%, 9:00 (instillation)): 0 mmHg
- Δ mmHg, nighttime intraocular pressure (intraocular pressure [2]; R-Hi 1.0%, 9:30): −7 mmHg
- Δ mmHg, nighttime intraocular pressure (intraocular pressure [2]; R-Hi 1.0%, 10 AM): −8 mmHg
- Δ mmHg, nighttime intraocular pressure (intraocular pressure [2]; R-Lo 0.33%, 1 PM): −4 mmHg
- Δ mmHg, nighttime intraocular pressure (intraocular pressure [2]; R-Lo 0.33%, 3 PM): −3 mmHg
- Δ mmHg, nighttime intraocular pressure (intraocular pressure [2]; R-Lo 0.33%, 5 PM): −2.5 mmHg
- Δ mmHg, nighttime intraocular pressure (intraocular pressure [2]; R-Lo 0.33%, 9:00 (instillation)): 0 mmHg
- Δ mmHg, nighttime intraocular pressure (intraocular pressure [2]; R-Lo 0.33%, 9:30): −7 mmHg
- Δ mmHg, nighttime intraocular pressure (intraocular pressure [2]; R-Lo 0.33%, 10 AM): −9 mmHg
- Δ mmHg, nighttime intraocular pressure (intraocular pressure [2]; R-Lo 0.33%, 11 AM): −9 mmHg
- increase of IOP (intraocular pressure [2]): Neither racemic nor isomeric salbutamol increased IOP
- affinity for beta-3 receptors (human β3 receptors): practically no affinity
- concentration dissolved in water (solubility in water): in excess of five percent by weight
- solubility in water (solubility in water): readily soluble in water
- wetting of the Schirmer strips (lacrimal gland secretion; during iv infusion 30 μg/kg/min for 20 min, predose 20.3±1.6, six eyes): 33.8±2.3 millimeter
- increased wetting of the Schirmer strips (lacrimal gland secretion; iv 30 μg/kg/min, versus predose): approximately 66%
- Meibomian secretion, mean [5]: 304 MU
- increase in IOP (intraocular pressure [6]): No increase in IOP was observed
- Mean Post-Instillation Irritation Score ([7]; 0.1% in saline, 4 Hours): 0
- Mean Post-Instillation Irritation Score ([7]; 0.1% in saline, 24 Hours): 0
- Mean Post-Instillation Irritation Score ([7]; 0.1% in saline, 30 Minutes): 0
- Mean Post-Instillation Irritation Score ([7]; 0.5% in saline, 4 Hours): 0
- Mean Post-Instillation Irritation Score ([7]; 0.5% in saline, 24 Hours): 0
- Mean Post-Instillation Irritation Score ([7]; 0.5% in saline, 30 Minutes): 0
- Mean Post-Instillation Irritation Score ([7]; 5.0% in saline, 4 Hours): 0
- Mean Post-Instillation Irritation Score ([7]; 5.0% in saline, 24 Hours): 0
- Mean Post-Instillation Irritation Score ([7]; 5.0% in saline, 30 Minutes): 0
- ocular irritancy ([7]; single-dose, in saline, concentrations up to 5%): not irritants

SMILES: CC(C)(C)NC[C@@H](O)c1ccc(O)c(CO)c1 [S-salbutamol]
- Meibomian gland secretion in vivo [1]: may also increase Meibomian gland secretion

SMILES: CNCC(O)c1ccc(OC(=O)C(C)(C)C)c(OC(=O)C(C)(C)C)c1 (centres unmarked) [dipivefrin]
- patients with epinephrine intolerance (patients): 3%

SMILES: CNC[C@H](O)c1ccc(O)c(O)c1 [epinephrine]
- patients with epinephrine intolerance (patients): 55%

SMILES: CC(C)(C)NC[C@H](O)COc1nsnc1N1CCOCC1 [timolol]
- intraocular pressure lowered (vs control animals), mean±SEM (intraocular pressure [4]; 3.5 mg/ml): 4.7±1.3 mmHg
- intraocular pressure lowered (vs control animals), mean±SEM (intraocular pressure [4]; 7.0 mg/ml): 4.6±1.0 mmHg
- intraocular pressure lowered (vs control animals), mean±SEM (intraocular pressure [4]; 14.0 mg/ml): 4.7±1.3 mmHg
